According to patent US10208059B2, “Heterocyclic modulators of HIF activity for treatment of disease” (Board of Regents, University of Texas System, priority 2012, dated 2019):

These molecules were tested on 293T-HRE-GFP-luc cells (assay: Cell-based reporter assay for IC50 determinations). Conditions: hypoxia 6 hrs (1% O2), luminescence, read-out: IC50 Classification.
Procedure, shortened: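 IC50 comes from a four-parameter logistic fit of luminescence from HRE-GFP-luc 293T cells. Compounds (1:3 series, 1:50 medium dilution) were preincubated 30 min under normoxia, followed by 6 h at 1% O2, 5% CO2, 37 °C, before Steadylite luciferase detection.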
Work on `Cc1nc(-c2nc(-c3ccc(OC(F)(F)F)cc3)no2)nn1Cc1cccc(C(O)CO)c1` (centres unmarked) [Example 85, 1-{3-[(5-Methyl-3-{3-[4-(trifluoromethoxy)phenyl]-1,2,4-oxadiazol-5-yl}-1H-1,2,4-triazol-1-yl)methyl]phenyl}ethane-1,2-diol] yielded an IC50 of under 100 nM. Molecule `Cc1nc(-c2nc(-c3ccc(OC(F)(F)F)cc3)no2)nn1Cc1cccc(OCC(O)CO)c1` (centres unmarked) [Example 86, 3-{3-[(5-methyl-3-{3-[4-(trifluoromethoxy)phenyl]-1,2,4-oxadiazol-5-yl}-1H-1,2,4-triazol-1-yl)methyl]phenoxy}propane-1,2-diol] has an IC50 of under 100 nM. `Cc1nc(-c2nc(-c3ccc(OC(F)(F)F)cc3)cs2)nn1Cc1ccnc(N2CCN(C)CC2)c1` [Example 87, 1-Methyl-4-{4-[(5-methyl-3-{4-[4-(trifluoromethoxy)phenyl]-1,3-thiazol-2-yl}-1H-1,2,4-triazol-1-yl)methyl]pyridin-2-yl}piperazine] gave an IC50 of under 100 nM. For `Cc1nc(-c2nc(-c3ccc(OC(F)(F)F)cc3)cs2)nn1Cc1cccc(S(C)(=O)=O)c1` [Example 88, 1-[(3-Methanesulfonylphenyl)methyl]-5-methyl-3-{4-[4-(trifluoromethoxy)phenyl]-1,3-thiazol-2-yl}-1H-1,2,4-triazole], the IC50 was 100 to 1000 nM. `Cc1nc(-c2nc(-c3ccc(OC(F)(F)F)cc3)cs2)nn1Cc1cccc(C(=O)N(C)C)c1` [Example 89, N,N-Dimethyl-3-[(5-methyl-3-{4-[4-(trifluoromethoxy)phenyl]-1,3-thiazol-2-yl}-1H-1,2,4-triazol-1-yl)methyl]benzamide] was tested, and the IC50 was 100 to 1000 nM. Molecule `COCCOc1cccc(Cn2nc(-c3nc(-c4ccc(OC(F)(F)F)cc4)cs3)nc2C)c1` [Example 90, 1-{[3-(2-Methoxyethoxy)phenyl]methyl}-5-methyl-3-{4-[4-(trifluoromethoxy)phenyl]-1,3-thiazol-2-yl}-1H-1,2,4-triazole] has an IC50 of 100 to 1000 nM. For `Cc1nc(-c2nc(-c3ccc(OC(F)(F)F)cc3)cs2)nn1Cc1cccc(OCCO)c1` [Example 91, 2-{3-[(5-Methyl-3-{4-[4-(trifluoromethoxy)phenyl]-1,3-thiazol-2-yl}-1H-1,2,4-triazol-1-yl)methyl]phenoxy}ethan-1-ol], the IC50 was 100 to 1000 nM. With `Cc1nc(-c2ncc(-c3ccc(OC(F)(F)F)cc3)o2)nn1Cc1ccnc(N2CCN(C)CC2)c1` [Example 92, 1-Methyl-4-{4-[(5-methyl-3-{5-[4-(trifluoromethoxy)phenyl]-1,3-oxazol-2-yl}-1H-1,2,4-triazol-1-yl)methyl]pyridin-2-yl}piperazine] the IC50 was under 100 nM. For `Cc1nc(-c2ncc(-c3ccc(OC(F)(F)F)cc3)o2)nn1Cc1ccnc(N2CCOCC2)c1` [Example 93, 4-{4-[(5-methyl-3-{5-[4-(trifluoromethoxy)phenyl]-1,3-oxazol-2-yl}-1H-1,2,4-triazol-1-yl)methyl]pyridin-2-yl}morpholine], the IC50 was 100 to 1000 nM. `Cc1nc(-c2cc(-c3ccc(OC(F)(F)F)cc3)no2)nn1Cc1cccc(N2CCC(S(C)(=O)=O)CC2)c1` [Example 94, 5-(5-Methyl-1-(3-(4-(methylsulfonyl)piperidin-1-yl)benzyl)-1H-1,2,4-triazol-3-yl)-3-(4-(trifluoromethoxy)phenyl)isoxazole] was tested, and the IC50 was under 100 nM. `Cc1nc(-c2cc(-c3ccc(OC(F)(F)F)cc3)no2)nn1Cc1ccnc(N2CCC(S(C)(=O)=O)CC2)c1` [Example 95, 5-(5-Methyl-1-((2-(4-(methylsulfonyl)piperidin-1-yl)pyridin-4-yl)methyl)-1H-1,2,4-triazol-3-yl)-3-(4-(trifluoromethoxy)phenyl)isoxazole] showed an IC50 of under 100 nM. `Cc1nc(-c2cc(-c3ccc(OC(F)(F)F)cc3)on2)nn1Cc1cccc(N2CCC(S(C)(=O)=O)CC2)c1` [Example 96, 3-(5-Methyl-1-(3-(4-(methylsulfonyl)piperidin-1-yl)benzyl)-1H-1,2,4-triazol-3-yl)-5-(4-(trifluoromethoxy)phenyl)isoxazole] was tested, and the IC50 was under 100 nM. For `Cc1nc(-c2cc(-c3ccc(OC(F)(F)F)cc3)on2)nn1Cc1ccnc(N2CCC(S(C)(=O)=O)CC2)c1` [Example 97, 3-(5-Methyl-1-((2-(4-(methylsulfonyl)piperidin-1-yl)pyridin-4-yl)methyl)-1H-1,2,4-triazol-3-yl)-5-(4-(trifluoromethoxy)phenyl)isoxazole], the IC50 was 100 to 1000 nM. For `Cc1nc(-c2nnc(-c3ccc(C(C)(C)C)cc3)o2)nn1Cc1cccc(N2CCOCC2)c1` [Example 98, 4-(3-((3-(5-(4-(tert-butyl)phenyl)-1,3,4-oxadiazol-2-yl)-5-methyl-1H-1,2,4-triazol-1-yl)methyl)phenyl)morpholine], the IC50 was under 100 nM. `Cc1nc(-c2nc(-c3ccc(OC(F)(F)F)cc3)no2)nn1Cc1cncnc1` [Example 99, 5-(5-methyl-1-(pyrimidin-5-ylmethyl)-1H-1,2,4-triazol-3-yl)-3-(4-(trifluoromethoxy)phenyl)-1,2,4-oxadiazole] gave an IC50 of 1000 to 10000 nM. In the case of `Cc1cccc(Cn2nc(-c3nc(-c4ccc(OC(F)(F)F)cc4)no3)nc2C)c1` [Example 100, 5-(5-methyl-1-(3-methylbenzyl)-1H-1,2,4-triazol-3-yl)-3-(4-(trifluoromethoxy)phenyl)-1,2,4-oxadiazole], the IC50 is reported as 1000 to 10000 nM. `COc1cccc(Cn2nc(-c3nc(-c4ccc(OC(F)(F)F)cc4)no3)nc2C)c1` [Example 101, 5-(1-(3-methoxybenzyl)-5-methyl-1H-1,2,4-triazol-3-yl)-3-(4-(trifluoromethoxy)phenyl)-1,2,4-oxadiazole] was tested, and the IC50 was 100 to 1000 nM. `Cc1nc(-c2nc(-c3ccc(OC(F)(F)F)cc3)no2)nn1Cc1cccc(C(F)(F)F)c1` [Example 102, 5-(5-methyl-1-(3-(trifluoromethyl)benzyl)-1H-1,2,4-triazol-3-yl)-3-(4-(trifluoromethoxy)phenyl)-1,2,4-oxadiazole] showed an IC50 of 1000 to 10000 nM. In the case of `Cc1nc(-c2nc(-c3ccc(OC(F)(F)F)cc3)no2)nn1Cc1cccc(OC(F)F)c1` [Example 103, 5-(1-(3-(difluoromethoxy)benzyl)-5-methyl-1H-1,2,4-triazol-3-yl)-3-(4-(trifluoromethoxy)phenyl)-1,2,4-oxadiazole], the IC50 is reported as 100 to 1000 nM. With `Cc1nc(-c2nc(-c3ccc(OC(F)(F)F)cc3)no2)nn1Cc1cccc(S(N)(=O)=O)c1` [Example 104, 3-((5-methyl-3-(3-(4-(trifluoromethoxy)phenyl)-1,2,4-oxadiazol-5-yl)-1H-1,2,4-triazol-1-yl)methyl)benzenesulfonamide] the IC50 was 100 to 1000 nM. Molecule `Cc1nc(-c2nc(-c3ccc(OC(F)(F)F)cc3)no2)nn1Cc1ccc(S(N)(=O)=O)cc1` [Example 105, 4-((5-methyl-3-(3-(4-(trifluoromethoxy)phenyl)-1,2,4-oxadiazol-5-yl)-1H-1,2,4-triazol-1-yl)methyl)benzenesulfonamide] has an IC50 of 100 to 1000 nM. For `Cc1nc(-c2nc(-c3ccc(OC(F)(F)F)cc3)no2)nn1Cc1cccc(S(C)(=O)=O)c1` [Example 106, 5-(5-methyl-1-(3-(methylsulfonyl)benzyl)-1H-1,2,4-triazol-3-yl)-3-(4-(trifluoromethoxy)phenyl)-1,2,4-oxadiazole], the IC50 was under 100 nM. `Cc1nc(-c2nc(-c3ccc(OC(F)(F)F)cc3)no2)nn1Cc1cccc(C#N)c1` [Example 107, 3-((5-methyl-3-(3-(4-(trifluoromethoxy)phenyl)-1,2,4-oxadiazol-5-yl)-1H-1,2,4-triazol-1-yl)methyl)benzonitrile] was tested, and the IC50 was 100 to 1000 nM. With `Cc1cccc(Cn2nc(-c3nc(-c4ccc(OC(F)(F)F)cc4)no3)nc2C)n1` [Example 108, 5-(5-methyl-1-((6-methylpyridin-2-yl)methyl)-1H-1,2,4-triazol-3-yl)-3-(4-(trifluoromethoxy)phenyl)-1,2,4-oxadiazole] the IC50 was 1000 to 10000 nM. `Cc1nc(-c2nc(-c3ccc(OC(F)(F)F)cc3)no2)nn1Cc1ccc(C(C)C)cc1` [Example 109, 5-(1-(4-isopropylbenzyl)-5-methyl-1H-1,2,4-triazol-3-yl)-3-(4-(trifluoromethoxy)phenyl)-1,2,4-oxadiazole] gave an IC50 of 100 to 1000 nM. In the case of `Cc1nc(-c2nc(-c3ccc(OC(F)(F)F)cc3)no2)nn1Cc1cccc2c1cnn2C` [Example 110, 5-(5-methyl-1-((1-methyl-1H-indazol-4-yl)methyl)-1H-1,2,4-triazol-3-yl)-3-(4-(trifluoromethoxy)phenyl)-1,2,4-oxadiazole], the IC50 is reported as 100 to 1000 nM. `Cc1nc(-c2nc(-c3ccc(OC(F)(F)F)cc3)no2)nn1Cc1ccc2c(c1)OCO2` [Example 111, 5-(1-(benzo[d][1,3]dioxol-5-ylmethyl)-5-methyl-1H-1,2,4-triazol-3-yl)-3-(4-(trifluoromethoxy)phenyl)-1,2,4-oxadiazole] was tested, and the IC50 was 100 to 1000 nM. `COc1ccc(Cn2nc(-c3nc(-c4ccc(OC(F)(F)F)cc4)no3)nc2C)cc1C(F)(F)F` [Example 112, 5-(1-(4-methoxy-3-(trifluoromethyl)benzyl)-5-methyl-1H-1,2,4-triazol-3-yl)-3-(4-(trifluoromethoxy)phenyl)-1,2,4-oxadiazole] gave an IC50 of 1000 to 10000 nM. `Cc1nc(-c2nc(-c3ccc(OC(F)(F)F)cc3)no2)nn1Cc1ccc2ccccc2n1` [Example 113, 5-(5-methyl-1-(quinolin-2-ylmethyl)-1H-1,2,4-triazol-3-yl)-3-(4-(trifluoromethoxy)phenyl)-1,2,4-oxadiazole] was tested, and the IC50 was under 100 nM. With `Cc1nc(-c2nc(-c3ccc(OC(F)(F)F)cc3)no2)nn1Cc1ccc2c(c1)nnn2C` [Example 114, 5-(5-methyl-1-((1-methyl-1H-benzo[d][1,2,3]triazol-5-yl)methyl)-1H-1,2,4-triazol-3-yl)-3-(4-(trifluoromethoxy)phenyl)-1,2,4-oxadiazole] the IC50 was 100 to 1000 nM. With `COc1nccc(Cn2nc(-c3nc(-c4ccc(OC(F)(F)F)cc4)no3)nc2C)n1` [Example 115, 5-(1-((2-methoxypyrimidin-4-yl)methyl)-5-methyl-1H-1,2,4-triazol-3-yl)-3-(4-(trifluoromethoxy)phenyl)-1,2,4-oxadizole] the IC50 was 1000 to 10000 nM. `Cc1nc(-c2noc(-c3ccc(C(C)(C)C)cc3)n2)nn1Cc1cccc(N2CCN(C)CC2)c1` [Example 116, 5-(4-(tert-butyl)phenyl)-3-(5-methyl-1-(3-(4-methylpiperazin-1-yl)benzyl)-1H-1,2,4-triazol-3-yl)-1,2,4-oxadiazole] showed an IC50 of under 100 nM.
